Measurements published in patent US11426472B2, “Fibroblast activation protein (FAP) targeted imaging and therapy in fibrosis” (Purdue Research Foundation, priority 2018, dated 2022).

Key:
mouse FAP = target: T1, mouse FAP (Mus musculus, UniProt P97321); experiment: Binding of FAPL_FITC to TGFβ-induced NIH-3T3 cells; format: cell-based
T1 construct: NIH-3T3 cells were induced with TGFβ to express FAP; endogenous in cells; host or cells: NIH-3T3 mouse fibroblasts induced with TGFβ
T1 sequence (P97321 1-761): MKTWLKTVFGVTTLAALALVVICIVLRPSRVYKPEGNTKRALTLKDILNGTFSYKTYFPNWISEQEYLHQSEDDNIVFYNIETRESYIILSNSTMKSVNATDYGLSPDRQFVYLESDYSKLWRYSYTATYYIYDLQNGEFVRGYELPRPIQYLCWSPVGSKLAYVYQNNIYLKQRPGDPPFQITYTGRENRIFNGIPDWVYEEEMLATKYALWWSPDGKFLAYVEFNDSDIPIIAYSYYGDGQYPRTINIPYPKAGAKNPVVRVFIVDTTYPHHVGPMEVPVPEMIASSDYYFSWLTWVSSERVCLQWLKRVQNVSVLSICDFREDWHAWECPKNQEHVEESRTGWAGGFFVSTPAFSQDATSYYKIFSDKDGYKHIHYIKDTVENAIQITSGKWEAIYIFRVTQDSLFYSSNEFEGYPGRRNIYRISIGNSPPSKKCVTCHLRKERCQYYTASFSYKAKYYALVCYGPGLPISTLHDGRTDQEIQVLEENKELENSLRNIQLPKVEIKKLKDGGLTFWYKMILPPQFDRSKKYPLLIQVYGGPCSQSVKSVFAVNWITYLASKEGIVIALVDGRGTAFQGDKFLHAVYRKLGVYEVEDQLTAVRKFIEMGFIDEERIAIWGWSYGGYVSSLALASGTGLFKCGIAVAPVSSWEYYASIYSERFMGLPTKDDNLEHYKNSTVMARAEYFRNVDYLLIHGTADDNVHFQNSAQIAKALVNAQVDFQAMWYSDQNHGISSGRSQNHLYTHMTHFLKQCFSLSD
Text: FAPL-FITC targets mouse FAP in mouse fibroblast cells. Fluorescence binding affinity study of FAPL_FITC in HLF-hFAP cells. (C) Binding of FAPL_FITC to TGFb induced mouse NIH-3T3 cell line.
In this Example, we have shown that FAPL_FITC can recognize mouse FAP. Briefly, NIH-3T3 cells were induced with TGFβ to express FAP (mimicking the pathogenesis of fibrosis in mice). FAPL_FITC can recognize almost 98% of the cell population that binds to a specific monoclonal antibody against mouse FAP.

human FAP = target: T2, human FAP (Homo sapiens, UniProt Q12884); experiment: Live cell imaging of FAP-FITC binding and internalization in HLF1-hFAP cells; format: cell-based; conditions: 10 nM
T2 construct: expressed in transfected cells; host or cells: HLF1 human lung fibroblast cell line transfected with FAP (HLF1-hFAP)
T2 sequence (Q12884 1-760): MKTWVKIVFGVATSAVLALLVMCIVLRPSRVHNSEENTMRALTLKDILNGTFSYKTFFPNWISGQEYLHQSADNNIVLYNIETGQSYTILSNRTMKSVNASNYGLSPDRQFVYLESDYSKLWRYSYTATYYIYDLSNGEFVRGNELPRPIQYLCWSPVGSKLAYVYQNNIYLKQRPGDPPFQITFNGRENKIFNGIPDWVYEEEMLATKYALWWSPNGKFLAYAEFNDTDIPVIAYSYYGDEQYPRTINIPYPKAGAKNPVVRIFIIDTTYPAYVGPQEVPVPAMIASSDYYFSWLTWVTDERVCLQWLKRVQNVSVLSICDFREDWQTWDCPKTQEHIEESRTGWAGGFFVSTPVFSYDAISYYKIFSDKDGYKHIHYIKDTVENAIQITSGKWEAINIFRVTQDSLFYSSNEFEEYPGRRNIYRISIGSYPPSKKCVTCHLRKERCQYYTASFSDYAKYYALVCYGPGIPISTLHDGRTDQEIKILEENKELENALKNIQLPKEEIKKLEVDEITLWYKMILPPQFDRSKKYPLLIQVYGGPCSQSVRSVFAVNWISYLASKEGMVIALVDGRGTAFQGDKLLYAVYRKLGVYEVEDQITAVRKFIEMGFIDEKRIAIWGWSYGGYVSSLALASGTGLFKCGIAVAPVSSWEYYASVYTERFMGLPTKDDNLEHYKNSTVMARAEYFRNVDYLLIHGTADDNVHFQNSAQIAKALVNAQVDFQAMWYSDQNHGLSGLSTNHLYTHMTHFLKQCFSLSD
Method: FAPL-FITC targets human FAP in HLF1 cells. A) Live cell imaging of FAPL-FITC internalization. confocal microscopy images of HLF1-hFAP cells incubated with FAPL-FITC (10 nM), FAP staining is shown in green. Spatial localization of FAPL-FITC in HLF1-hFAP cell line at 0 min (a), and at 30 min (d). Colocalization of FAP and endosomes: HLF1-hFAP cells incubated with FAPL-FITC followed by staining for endosomes (Rab7a-RFP; red) and nucleus (DRAQ5; blue). The merge of the 3 images is shown on the right (c, and f). Yellow indicated colocalization of FAP with endosomal markers.
HLF1-hFAP cells were seeded in the glass-bottom dish and incubated with adequate amount of endosomes tracker (Rab7a-RFP, ThermoFisher) for overnight. Then cells were incubated with FAP-FITC (10 nM) for 1 hour at 4° C. Followed by staining with […] DRAQ5 nucleus dye (ThermoFisher) and 3 times of PBS washes, spatial localization of FAP-FITC was monitor at given time under ambient temperature by confocal microscope (FV 1000, Olympus). Confocal images were further processed by FV10-ASW, Olympus software.

HLF-1 fibroblasts [1] = experiment: Secreted collagen in HLF1 cells (Sirius Red staining); format: cell-based, human
Method: (§1) PI3KI1 inhibits Akt phosphorylation, proliferation, collagen secretion and collagen gel contraction in HLF-1 fibroblasts. (A) PI3KI1 structure. (B) Confluent HLF-1 fibroblasts were stimulated with TGFβ (1 ng/mL) with indicated PI3KI1 or OMIPALISIB and lysates collected for Western blotting. […] Collagen 1 and αSMA expression was suppressed by 100 nM PI3KI1, but pSMAD2 was not affected by PI3K inhibitors. (C) MTT assay and Caspase 3 and 7 activity (Supplementary data) show PI3KI1 inhibited HLF-1 proliferation at >100 nM. (D) HLF-1 fibroblasts were stimulated with TGFβ (1 ng/mL) for 3 days and level of secreted collagen in culture medium was determined by Sirius Red staining. […] Data are analysis by t-test; *p<0.05, **p<0.01.
Confluent HLF1 cells were seeded in DMEM medium containing 10% FBS and then 0.4% serum starvation overnight before stimulation of collagen secretion. TGFb1 (0.1 ng/ml) were added into cells with or without PI3K inhibitors. At 2 days post co-incubation, culture medium was collected for determination of total secreted collagen level. Total collagen level was determined by Sirius Red Total Collagen Detection Kit (Chondrex, Inc). Basically, concentrated sample incubated with […] of Sirius Red Solution with for 20 minutes at room temperature. […] Add […] of Extraction Buffer to the Sirius Red stained pellet and read the OD at 510-550 nm.

IPF fibroblasts = experiment: TGFβ-induced Collagen I in IPF patient fibroblasts (molecular crowding assay, high content imaging); format: cell-based, human; conditions: for TGFβ-induced collagen production/secretion: IPF patient fibroblasts, TGFβ 1 ng/mL, 48 h
Method: PI3KI1 and PI3KI1-FAPL suppressed TGFβ-induced collagen production in IPF fibroblasts. (B) Confluent IPF fibroblasts were stimulated for 48 h with TGFβ (1 ng/mL) with increasing concentrations of OMIPALISIB or PI3KI1 or PI3KI1-FAPL and Collagen I expression was assayed by molecular crowding assay with high content image analysis. Data are expressed as relative fluorescent intensity over TGFβ treated IPF fibroblasts (C) and cell counts obtained from DAPI counterstaining (D).

[2] = tested on: bleomycin-induced lung fibrosis; experiment: Therapy in bleomycin-induced lung fibrosis model (survival, hydroxyproline); format: in vivo, mouse; conditions: for survival: bleomycin-induced mice versus untreated/PBS control; for hydroxyproline/collagen in lung: bleomycin-induced mice, day 21, versus untreated/PBS control
Text: Therapy with FAP-a targeted Pi3K inhibitor in bleomycin treated mice. (A) Schematic representation of the experimental protocol for induction, treatment and examination of pulmonary fibrosis in a mouse model. (B) Survival probability of the FAPL_PI3KI1 treated mice over the saline control. (C) Hydroxyproline content (ug/lung) of control (saline), bleomycin treated with and without FAPL_PI3KI1 treatment at day 21. (D) Body weight change
8 to 10-week old C57BL/6-NCrl (Strain Code: 027) male mice (Charles River) were anesthetized (mixture of xylazine/ketamine), followed by a single intratracheal injection of freshly prepared 0.75 mg/Kg of bleomycin sulfate (Cayman Chemicals, Cat N13877) in 50 μL of sterile phosphate-buffered saline (PBS). Control mice were injected with 50 μL of sterile PBS. Body weights were monitored throughout the study. To access the FAP expression and fibrosis in the longitudinal study the lungs were harvested at Days 7, 14 and 21 post-bleomycin instillation. For the therapy with FAP-PI3K inhibitor, same procedure was carried out to administer bleomycin and the lungs were harvested at Day 21 to access the therapeutic efficacy (Day 0 was accounted as the day of bleomycin administration).
Total lung collagen was determined by analysis of hydroxyproline as previously described.^30 The right lung was consistently dedicated for this assay to allow comparison. Briefly, harvested right lung was homogenized in PBS (PH 7.4), digested with 12N HCl at 120° C. for 3 hr. Citrate/acetate buffer (PH 6.0) and Chloramine-T solution were added at room temperature for 20 minutes and the samples were incubated with Ehrlich's solution for 15 min at 65° C. Samples were cooled to room temperature and read at 550 nm. Hydroxyproline standards (Sigma, MO) at concentrations between 0 to 100 μg/ml were used to construct a standard curve.

PI-3 Kinase signaling = conditions: IPF-derived lung fibroblasts; cited from earlier work
AKT phosphorylation = experiment: Western blot of TGFβ-stimulated HLF-1 fibroblasts: Akt phosphorylation; format: cell-based, human
Method: as §1
(§2) Serum starved confluent HLF1 cells were co-incubated in medium containing 1 ng/ml TGFb1 with or without designate concentrations of PI3K inhibitors for 24 hours. Cells were harvested and lysed for Western blot analysis. Following sodium dodecyl sulphate polyacrylamide gel electrophoresis and blocking, membranes were incubated with antibodies to detect pSMAD2^Ser465/467 (#3101, Cell Signalling Technology), or pAkt^Ser473 (#4060, Cell signalling Technology), and signals visualized with ECL Western Blotting Detection Reagents (GE Healthcare). […]

[3] = tested on: Collagen 1 and αSMA expression; experiment: Western blot of TGFβ-stimulated HLF-1 fibroblasts: Collagen 1 and αSMA expression; format: cell-based, human; conditions: 100 nM, HLF-1, TGFβ 1 ng/mL
Method: as §1, §2

HLF-1 fibroblasts [4] = experiment: MTT assay and Caspase 3 and 7 activity in HLF-1; format: cell-based, human
Method: as §1
FIG. 18. Caspase 3 and 7 activity show PI3KI1 inhibited HLF-1 proliferation at >100 nM.

HLF-1 fibroblasts [5] = experiment: Collagen gel contraction assay; format: cell-based, human; conditions: 100 nM for 12 hours
Method: as §1

SMILES: C[C@H](NC(=O)c1ccnc(CNC(=O)CCC(=O)NC(CSC2CC(=O)N(c3ccc(C4c5ccc(O)cc5OC5=CC(=O)C=CC54)c(C(=O)O)c3)C2=O)C(=O)O)c1)C(=O)N1CC(F)(F)C[C@H]1C#N (some centres unmarked) [FAPL-FITC]
- cell population recognized among cells binding a monoclonal antibody against mouse FAP (mouse FAP): ~98%
- binding to hFAP-HLF1 cell line (human FAP; confocal microscopy and flow cytometry): binds well with good competition
- internalization (human FAP; HLF1-hFAP cells): internalized upon receptor engagement

SMILES: COc1ncc(-c2ccc3nccc(-c4ccc(COC(=O)OCCSSCC(NC(=O)CCC(=O)NCc5cc(C(=O)N[C@@H](C)C(=O)N6CC(F)(F)C[C@H]6C#N)ccn5)C(=O)O)nc4)c3c2)cc1NS(=O)(=O)c1ccc(F)cc1F (some centres unmarked) [FAPL-PI3KI1]
- IC50 (HLF-1 fibroblasts [1]; HLF1-hFAP cell line, read-out: IC50 of collagen secretion/synthesis): < 10 nM
- IC50 (IPF fibroblasts; IPF patient cell lines, read-out: IC50 of collagen secretion/synthesis): < 10 nM
- TGFβ-induced collagen production/secretion (IPF fibroblasts; listed as FAP_PI3KI1): suppresses TGFβ induced collagen secretion at low drug concentration, better than free PI3KI1 and free GSK drug OMIPALISIB
- TGFβ-induced collagen production/secretion (IPF fibroblasts; listed as PI3KI1-FAPL): suppressed
- survival [2]: increased survival
- survival ([2]; listed as FAPL_PI3KI-SUH): increased survival rate
- hydroxyproline/collagen in lung [2]: decreased hydroxyproline/collagen production
- hydroxyproline/collagen in lung ([2]; listed as FAPL_PI3KI-SUH): reduction of hydroxyproline

SMILES: COc1ncc(-c2ccc3nccc(-c4ccnnc4)c3c2)cc1NS(=O)(=O)c1ccc(F)cc1F [OMIPALISIB]
- PI-3 Kinase signaling and functional responses (PI-3 Kinase signaling): inhibited PI-3 Kinase signaling and functional responses

SMILES: COc1ncc(-c2ccc3nccc(-c4ccc(CO)nc4)c3c2)cc1NS(=O)(=O)c1ccc(F)cc1F [PI3KI1]
- Akt phosphorylation inhibition compared with OMIPALISIB (AKT phosphorylation; HLF-1): better than its GSK counterpart OMIPALISIB
- IC50 (AKT phosphorylation; Homo sapiens, HLF1, HLF-1, TGF-β 1 ng/ml for 24 hr, read-out: IC50 of TGF-β induced AKT phosphorylation): 1.4 nM
- Collagen 1 and αSMA expression [3]: suppressed
- toxicity (HLF-1 fibroblasts [4]; HLF-1): does not have toxicity
- concentration at which HLF-1 proliferation is inhibited (HLF-1 fibroblasts [4]; MTT assay and Caspase 3 and 7 activity): > 100 nM
- collagen secretion (HLF-1 fibroblasts [1]; HLF-1 cell line, TGFβ stimulated): suppresses collagen secretion
- fibroblast reorganization and contraction (collagen gel contraction) (HLF-1 fibroblasts [5]): disrupted fibroblasts reorganization and contraction
- TGFβ-induced collagen production/secretion (IPF fibroblasts): suppressed
